Results published in the SangsterLogP compilation.

Test: method code SF-HPLC, from DOI: 10.1248/cpb.46.274

**Q.** Which logP does the source give for `COc1ccc(/C=C/C(C)=O)cc1` here?
**A.** 2.25

**Q.** For `O=C(C=Cc1cccc([N+](=O)[O-])c1)C(F)(F)F`, which logP is on record?
**A.** 2.66

**Q.** For `N#Cc1ccc(C=CC(=O)C(F)(F)F)cc1`, which logP is on record?
**A.** 2.42

**Q.** With `N#Cc1cccc(/C=C/C(=O)C(F)(F)F)c1` as the compound, how does the logP read?
**A.** 2.45

**Q.** With `COc1ccc(C=CC(=O)C(F)(F)F)cc1` as the compound, how does the logP read?
**A.** 3.33

**Q.** Which logP does the source give for `CC(=O)C=Cc1cccc(F)c1` here?
**A.** 2.25

**Q.** Which logP does the source give for `CC(=O)C=Cc1ccc(C)cc1` here?
**A.** 2.65

**Q.** With `O=C(C=Cc1ccccc1Cl)C(F)(F)F` as the compound, how does the logP read?
**A.** 3.5

**Q.** With `CC(=O)/C=C/c1ccccc1Cl` as the compound, how does the logP read?
**A.** 2.85

**Q.** With `CC(=O)/C=C/c1ccccc1C(F)(F)F` as the compound, how does the logP read?
**A.** 3.14

**Q.** For `COc1ccccc1C=CC(=O)C(F)(F)F`, which logP is on record?
**A.** 3.39

**Q.** For `COc1cccc(/C=C/C(C)=O)c1`, which logP is on record?
**A.** 2.27

**Q.** With `O=C(C=Cc1ccc(Cl)cc1)C(F)(F)F` as the compound, how does the logP read?
**A.** 3.63

**Q.** For `CC(=O)/C=C/c1ccc(N(C)C)cc1`, which logP is on record?
**A.** 2.66

**Q.** Which logP does the source give for `O=C(C=Cc1ccccc1)C(F)(F)F` here?
**A.** 3.01

**Q.** Which logP does the source give for `CC(=O)/C=C/c1ccccc1O` here?
**A.** 2.19

**Q.** For `CC(=O)/C=C/c1ccc(Cl)cc1`, which logP is on record?
**A.** 2.8

**Q.** With `CC(=O)/C=C/c1ccc(C(F)(F)F)cc1` as the compound, how does the logP read?
**A.** 3.13

**Q.** For `COc1ccccc1/C=C/C(C)=O`, which logP is on record?
**A.** 2.42

**Q.** Which logP does the source give for `CC(=O)/C=C/c1ccccc1F` here?
**A.** 2.34

**Q.** Which logP does the source give for `CC(=O)C=Cc1cccc(C#N)c1` here?
**A.** 1.59

**Q.** Which logP does the source give for `CC(=O)/C=C/c1cccc([N+](=O)[O-])c1` here?
**A.** 1.88

**Q.** With `CC(=O)C=Cc1ccc(C#N)cc1` as the compound, how does the logP read?
**A.** 1.64

**Q.** With `O=C(C=Cc1cccc(Cl)c1)C(F)(F)F` as the compound, how does the logP read?
**A.** 3.58

**Q.** Which logP does the source give for `CC(=O)C=Cc1ccc(Br)cc1` here?
**A.** 3.03

**Q.** Which logP does the source give for `CC(=O)/C=C/c1cccc(C)c1` here?
**A.** 2.68

**Q.** For `CC(=O)/C=C/c1cccc(C(F)(F)F)c1`, which logP is on record?
**A.** 3.03

**Q.** With `CCc1ccc(/C=C/C(C)=O)cc1` as the compound, how does the logP read?
**A.** 3.26

**Q.** With `CC(=O)C=Cc1ccc(F)cc1` as the compound, how does the logP read?
**A.** 2.22

**Q.** Which logP does the source give for `CC(=O)/C=C/c1ccc(O)cc1` here?
**A.** 1.86

**Q.** Which logP does the source give for `COc1cccc(C=CC(=O)C(F)(F)F)c1` here?
**A.** 3.05

**Q.** Which logP does the source give for `CC(=O)C=Cc1ccc(OC(C)=O)cc1` here?
**A.** 1.63

**Q.** Which logP does the source give for `CC(=O)/C=C/c1ccccc1C` here?
**A.** 2.6

**Q.** With `CC(=O)/C=C/c1cccc(Br)c1` as the compound, how does the logP read?
**A.** 3.02

**Q.** Which logP does the source give for `CC(=O)/C=C/c1cccc(Cl)c1` here?
**A.** 2.81

**Q.** For `CCOc1ccc(C=CC(C)=O)cc1`, which logP is on record?
**A.** 2.73
